The target in data set [1] is T1, CYP3A4 (Homo sapiens, UniProt P08684). Description: Inhibition of CYP3A4 (unknown origin). The format is ADME.
For data set [2], the target named is T1, CYP3A4. Description: Inhibition of CYP3A4 in human liver microsomes. Format: ADME, Microsome. On the technique in general: Liver microsomes are vesicles of endoplasmic reticulum, rich in cytochrome P450 enzymes.
For data set [3], the target named is Cytochrome P450 3A4 (Homo sapiens, UniProt P08684). Description: Inhibition of CYP3A4 in human liver microsome assessed as fold change. As to conditions: microsomes. Format: ADME.
For data set [4], the target named is T2, Hepatocyte growth factor receptor (Homo sapiens, UniProt P08581). Description: Inhibition of c-Met (unknown origin).
Data set [5] is described as follows: Water solubility of compound at pH 7 incubated for 2 hrs by HPLC analysis. Format: physicochemical.
The nature of data set [6]: Antiproliferative activity against mouse BaF3/[…] cells assessed as reduction in cell viability incubated for 72 hrs by Cell-titer glo reagent based assay. Format: functional. Particulars: BaF3, 72 h.
For data set [7], the target named is Proto-oncogene tyrosine-protein kinase receptor Ret (Homo sapiens, UniProt P07949). The data set can be described thus: Inhibition of RET (unknown origin).
Data set [8] addresses ALK tyrosine kinase receptor (Homo sapiens, UniProt Q9UM73). The data set can be described thus: Inhibition of ALK (unknown origin).
For data set [9], the target named is Epidermal growth factor receptor (Homo sapiens, UniProt P00533). The data set can be described thus: Inhibition of EGFR (unknown origin).
For data set [10], the target named is T2, Hepatocyte growth factor receptor. The data set can be described thus: Inhibition of c-MET (unknown origin) incubated for 30 mins by ELISA method. (An ELISA detects its analyte on a solid surface through an enzyme-linked reagent.)
Data set [11] is described as follows: Antiproliferative activity against mouse BaF3/TRP-Met cells assessed as reduction in cell growth incubated for 72 hrs by SRB assay. As to conditions: BaF3, 72 h. A general note: The SRB assay estimates cell density from bound dye.
Data set [12] concerns NIH3T3. The data set can be described thus: Antiproliferative activity against mouse NIH3T3/TRP-Met cells assessed as reduction in cell growth incubated for 72 hrs by SRB assay. Particulars: NIH3T3, 72 h.
Data set [13] concerns NIH3T3. Description: Antiproliferative activity against mouse NIH3T3 cells assessed as reduction in cell growth incubated for 72 hrs by SRB assay. Particulars: NIH3T3, 72 h.
For data set [14], the system named is NCI-H661. Description: Antiproliferative activity against human NCI-H661 cells assessed as reduction in cell viability incubated for 72 hrs by SRB assay. As to conditions: NCI-H661, 72 h.
For data set [15], the system named is SNU1. Description: Antiproliferative activity against human SNU1 cells assessed as reduction in cell viability incubated for 72 hrs by SRB assay. Particulars: SNU1, 72 h.
Data set [16] addresses T2, Hepatocyte growth factor receptor. The data set can be described thus: Inhibition of c-MET (unknown origin) using poly (Glu,Tyr) 4:1 as substrate incubated for 30 mins by ADP-Glo reagent based analysis.
For data set [17], the system named is HepG2. The data set can be described thus: Antiproliferative activity against human HepG2 cells assessed as reduction in cell viability incubated for 72 hrs by MTT assay. The format is functional, cell-based. Particulars: HepG2, 72 h.
Data set [18] has as its system EBC-1. The data set can be described thus: Antiproliferative activity against human EBC-1 cells assessed as reduction in cell viability incubated for 72 hrs by Cell-titer glo luminescent assay. The format is functional, cell-based. As to conditions: EBC-1, 72 h.
The test system of data set [19] is MKN-45. The data set can be described thus: Antiproliferative activity against human MKN-45 cells assessed as reduction in cell viability incubated for 72 hrs by Cell-titer glo luminescent assay. Format: functional, cell-based. Particulars: MKN-45, 72 h.

Values after ≈ are worked out from the molar mass of the structure shown.

T2 sequence (P08581 whole entry): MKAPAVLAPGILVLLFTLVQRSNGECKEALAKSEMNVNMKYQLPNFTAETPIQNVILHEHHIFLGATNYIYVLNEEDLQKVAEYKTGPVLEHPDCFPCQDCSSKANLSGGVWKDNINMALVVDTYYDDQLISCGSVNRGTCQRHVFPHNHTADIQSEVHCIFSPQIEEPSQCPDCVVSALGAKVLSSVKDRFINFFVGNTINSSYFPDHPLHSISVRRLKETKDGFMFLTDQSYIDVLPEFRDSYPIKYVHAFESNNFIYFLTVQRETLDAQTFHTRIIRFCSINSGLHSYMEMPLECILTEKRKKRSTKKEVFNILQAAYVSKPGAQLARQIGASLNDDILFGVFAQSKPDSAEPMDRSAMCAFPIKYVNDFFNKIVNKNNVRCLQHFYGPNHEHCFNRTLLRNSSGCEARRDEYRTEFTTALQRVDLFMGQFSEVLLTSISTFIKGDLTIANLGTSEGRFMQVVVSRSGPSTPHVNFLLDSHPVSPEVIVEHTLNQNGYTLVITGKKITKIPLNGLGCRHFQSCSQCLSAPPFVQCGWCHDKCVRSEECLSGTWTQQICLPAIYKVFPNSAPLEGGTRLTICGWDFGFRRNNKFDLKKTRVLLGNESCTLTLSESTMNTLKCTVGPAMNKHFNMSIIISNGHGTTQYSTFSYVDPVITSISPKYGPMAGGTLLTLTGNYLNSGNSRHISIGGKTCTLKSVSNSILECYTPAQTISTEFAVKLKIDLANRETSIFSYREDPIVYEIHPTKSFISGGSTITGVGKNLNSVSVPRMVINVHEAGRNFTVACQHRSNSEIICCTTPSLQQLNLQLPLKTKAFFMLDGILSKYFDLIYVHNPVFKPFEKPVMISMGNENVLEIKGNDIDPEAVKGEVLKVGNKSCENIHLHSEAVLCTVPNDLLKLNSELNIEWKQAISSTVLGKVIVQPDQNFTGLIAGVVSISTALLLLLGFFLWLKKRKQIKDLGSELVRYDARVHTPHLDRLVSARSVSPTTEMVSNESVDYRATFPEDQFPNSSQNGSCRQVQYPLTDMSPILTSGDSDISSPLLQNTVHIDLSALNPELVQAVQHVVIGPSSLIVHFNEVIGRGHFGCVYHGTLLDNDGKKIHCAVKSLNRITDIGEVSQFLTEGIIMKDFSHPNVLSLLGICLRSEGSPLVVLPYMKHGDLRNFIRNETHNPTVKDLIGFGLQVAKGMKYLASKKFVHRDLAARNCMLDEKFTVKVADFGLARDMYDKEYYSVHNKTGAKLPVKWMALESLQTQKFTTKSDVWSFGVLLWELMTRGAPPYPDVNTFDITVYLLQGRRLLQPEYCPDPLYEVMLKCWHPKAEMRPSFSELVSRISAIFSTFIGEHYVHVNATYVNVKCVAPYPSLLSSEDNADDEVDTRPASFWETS
Sequence of Epidermal growth factor receptor (P00533 whole entry): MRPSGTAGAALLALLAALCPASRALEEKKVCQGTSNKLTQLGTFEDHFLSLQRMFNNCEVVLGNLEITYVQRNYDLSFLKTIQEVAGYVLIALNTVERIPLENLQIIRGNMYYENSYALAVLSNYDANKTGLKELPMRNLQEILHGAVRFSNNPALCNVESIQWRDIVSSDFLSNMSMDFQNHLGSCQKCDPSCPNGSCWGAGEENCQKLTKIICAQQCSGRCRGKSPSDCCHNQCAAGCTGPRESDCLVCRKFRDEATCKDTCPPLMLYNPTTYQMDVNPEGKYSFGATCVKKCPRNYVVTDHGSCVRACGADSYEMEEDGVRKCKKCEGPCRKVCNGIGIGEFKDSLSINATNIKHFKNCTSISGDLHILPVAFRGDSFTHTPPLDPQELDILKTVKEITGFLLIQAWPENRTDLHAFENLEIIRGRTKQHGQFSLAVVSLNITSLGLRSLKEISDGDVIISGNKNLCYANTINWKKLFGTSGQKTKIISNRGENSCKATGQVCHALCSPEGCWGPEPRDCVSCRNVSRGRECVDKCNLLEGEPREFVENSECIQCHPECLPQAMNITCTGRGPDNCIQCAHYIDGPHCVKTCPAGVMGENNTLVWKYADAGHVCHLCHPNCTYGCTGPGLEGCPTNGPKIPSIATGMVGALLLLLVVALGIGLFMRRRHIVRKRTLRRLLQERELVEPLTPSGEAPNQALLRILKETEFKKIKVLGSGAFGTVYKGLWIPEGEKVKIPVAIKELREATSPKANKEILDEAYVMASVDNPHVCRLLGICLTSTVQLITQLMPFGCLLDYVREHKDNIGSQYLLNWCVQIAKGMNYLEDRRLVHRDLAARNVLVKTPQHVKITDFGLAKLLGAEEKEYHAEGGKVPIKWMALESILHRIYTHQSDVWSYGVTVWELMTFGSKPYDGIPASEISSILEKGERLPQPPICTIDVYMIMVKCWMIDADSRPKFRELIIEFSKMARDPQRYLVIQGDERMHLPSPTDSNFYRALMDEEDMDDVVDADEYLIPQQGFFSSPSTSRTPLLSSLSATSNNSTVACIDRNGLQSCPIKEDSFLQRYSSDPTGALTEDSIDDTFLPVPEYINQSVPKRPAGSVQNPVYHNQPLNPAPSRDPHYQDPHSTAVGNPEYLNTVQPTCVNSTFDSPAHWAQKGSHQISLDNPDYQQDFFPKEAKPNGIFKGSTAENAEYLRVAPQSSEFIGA
T1 sequence (P08684 whole entry): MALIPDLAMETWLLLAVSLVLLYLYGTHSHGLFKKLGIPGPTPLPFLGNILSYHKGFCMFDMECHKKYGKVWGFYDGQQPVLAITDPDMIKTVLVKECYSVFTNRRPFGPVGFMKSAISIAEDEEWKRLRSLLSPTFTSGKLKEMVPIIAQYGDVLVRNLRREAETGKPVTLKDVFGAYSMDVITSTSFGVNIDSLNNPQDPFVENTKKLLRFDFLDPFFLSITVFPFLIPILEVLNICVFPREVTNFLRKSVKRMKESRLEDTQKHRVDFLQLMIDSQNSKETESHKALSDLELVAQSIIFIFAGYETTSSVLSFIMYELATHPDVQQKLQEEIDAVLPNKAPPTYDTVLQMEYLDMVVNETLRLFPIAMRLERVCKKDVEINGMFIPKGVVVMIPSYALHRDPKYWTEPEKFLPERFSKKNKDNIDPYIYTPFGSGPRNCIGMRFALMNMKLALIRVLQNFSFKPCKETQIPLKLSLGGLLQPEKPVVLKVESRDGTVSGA
Sequence of Cytochrome P450 3A4 (P08684 whole entry): as above
Sequence of ALK tyrosine kinase receptor (Q9UM73 whole entry): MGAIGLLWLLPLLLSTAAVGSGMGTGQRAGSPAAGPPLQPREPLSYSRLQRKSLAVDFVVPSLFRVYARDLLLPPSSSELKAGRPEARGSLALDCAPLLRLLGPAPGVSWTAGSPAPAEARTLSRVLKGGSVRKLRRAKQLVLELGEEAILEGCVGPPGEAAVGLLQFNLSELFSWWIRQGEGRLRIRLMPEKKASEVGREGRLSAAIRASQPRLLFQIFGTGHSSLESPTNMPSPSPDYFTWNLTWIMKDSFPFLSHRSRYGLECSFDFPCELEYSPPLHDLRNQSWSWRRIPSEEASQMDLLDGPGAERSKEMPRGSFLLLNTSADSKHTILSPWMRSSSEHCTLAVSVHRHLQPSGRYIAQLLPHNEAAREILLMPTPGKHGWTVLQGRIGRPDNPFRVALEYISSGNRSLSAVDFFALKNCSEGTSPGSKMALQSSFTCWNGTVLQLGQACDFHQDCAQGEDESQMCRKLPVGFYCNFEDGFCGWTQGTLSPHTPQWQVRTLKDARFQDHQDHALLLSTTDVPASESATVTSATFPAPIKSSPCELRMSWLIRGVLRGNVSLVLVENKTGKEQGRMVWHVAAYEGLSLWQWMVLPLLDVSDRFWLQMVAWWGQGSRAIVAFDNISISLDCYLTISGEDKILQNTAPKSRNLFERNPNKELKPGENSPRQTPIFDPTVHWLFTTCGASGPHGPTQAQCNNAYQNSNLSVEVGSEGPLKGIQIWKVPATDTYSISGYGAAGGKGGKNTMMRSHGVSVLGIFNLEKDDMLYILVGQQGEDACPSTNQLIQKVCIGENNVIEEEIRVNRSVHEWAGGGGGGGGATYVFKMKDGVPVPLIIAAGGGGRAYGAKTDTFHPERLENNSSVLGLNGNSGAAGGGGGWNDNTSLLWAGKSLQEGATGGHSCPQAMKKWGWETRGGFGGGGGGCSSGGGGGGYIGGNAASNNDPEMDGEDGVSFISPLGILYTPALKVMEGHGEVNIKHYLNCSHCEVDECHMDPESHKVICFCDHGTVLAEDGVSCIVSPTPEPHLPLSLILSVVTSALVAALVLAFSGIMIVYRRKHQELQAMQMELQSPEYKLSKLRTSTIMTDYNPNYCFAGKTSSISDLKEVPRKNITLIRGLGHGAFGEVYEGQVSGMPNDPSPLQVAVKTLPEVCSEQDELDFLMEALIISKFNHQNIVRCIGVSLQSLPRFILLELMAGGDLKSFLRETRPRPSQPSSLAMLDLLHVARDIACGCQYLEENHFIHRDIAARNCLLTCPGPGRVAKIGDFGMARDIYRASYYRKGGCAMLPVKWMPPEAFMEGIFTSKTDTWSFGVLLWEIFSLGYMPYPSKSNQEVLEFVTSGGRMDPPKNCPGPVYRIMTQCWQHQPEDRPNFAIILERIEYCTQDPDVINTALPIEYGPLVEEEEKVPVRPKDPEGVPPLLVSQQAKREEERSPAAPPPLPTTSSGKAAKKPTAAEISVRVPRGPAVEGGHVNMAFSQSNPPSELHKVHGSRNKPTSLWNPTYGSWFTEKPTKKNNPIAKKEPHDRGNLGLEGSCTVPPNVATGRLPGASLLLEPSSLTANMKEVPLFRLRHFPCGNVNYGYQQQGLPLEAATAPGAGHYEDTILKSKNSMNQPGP

In the case of `COc1ccc2c(NCc3nnc4ccc(-c5ccccc5)nn34)ccnc2c1`, the IC50 in data set [1] and in [2] was more than 50 µM throughout. For the same compound, in [3], the “fold change (FC)” value was more than 1.
As for `COc1ccc2c(OCc3nnc4ccc(-c5ccccc5)nn34)ccnc2c1` [AMG-208], the IC50 in [4] is 0.0044 µM.
On to `COc1ccc2c(SCc3nnc4ccc(-c5ccccc5)nn34)ccnc2c1`, for which, in data set [3], the “fold change (FC)” value is reported as 0.64.
For `Oc1ccc(-c2cnc3nnc(SCc4ccncc4)n3n2)cc1`, in data set [5], the solubility at 2 h worked out at 0.0036 mg/mL (≈ 10.7 µM).
For `Clc1ccc(-c2cn3cccc(COc4nnc5ccc(Cl)nn45)c3n2)c(Cl)c1`, the IC50 in data set [6] came out at 0.271 µM; in data set [7], 12.3 µM; in data set [8], 13.5 µM; in data set [9], 15.6 µM; in data set [10], 0.062 µM.
Consider `COc1ccc2c(OCc3nnc4ncc(-c5ccccc5)nn34)ccnc2c1`, for which the half-inhibitory concentration (IC50) is 0.0237 µM in [11]; 0.0795 µM in [12]; more than 50 µM in data set [13]; more than 50 µM in data set [14]; more than 50 µM in data set [15].
As to `Cc1ccc(-c2cnc3nnc(SCc4ccncc4)n3n2)cc1`, the IC50 in data set [16] was found to be 0.0046 µM; in data set [17] it was 0.74 µM.
In the case of `Brc1ccc(-c2cnc3nnc(SCc4cccnc4)n3n2)cc1`, the results for the IC50 in data set [16] and in [17] were 0.0064 µM and 0.71 µM, respectively.
In the case of `Cc1ccc(-c2cnc3nnc(SCc4cccnc4)n3n2)cc1`, the values for the IC50 in [16] and in data set [17] were 0.0056 µM and 1.02 µM, respectively.
As for `CC(c1c(Cl)ccc(F)c1Cl)c1c(Cl)[nH]c2ncc(-c3cnn(C4CCNCC4)c3)cc12` (centres undefined), the values for the half-maximal inhibitory concentration (IC50) in data set [18] and in [19] were 9.21 µM and 6.52 µM, respectively.
Consider `Clc1ccc(Cl)c(-c2cn3cccc(COc4nnc5ccc(Cl)nn45)c3n2)c1`, for which the IC50 in [6] was 0.253 µM; in data set [7] it was 12.2 µM; in data set [8], 11.3 µM; in data set [9], 14.2 µM; in data set [10], 0.053 µM.
For `Cc1[nH]c2ncc(-c3cnn(C4CCNCC4)c3)cc2c1C(C)c1c(Cl)ccc(F)c1Cl` (centres undefined), the results for the half-maximal inhibitory concentration (IC50) in [18] and in data set [19] were 2.38 µM and 1.98 µM, respectively.
Turning to `Oc1ccc(-c2cnc3nnc(NCc4ccncc4)n3n2)cc1`, the IC50 in data set [16] came to 0.052 µM; in [17], 3.06 µM. The compound further had a solubility at 2 h in [5] of 0.203 mg/mL (≈ 636 µM).

As usually defined, the IC50 is the point on the concentration scale where inhibition reaches its midpoint. For orientation: solubility means the dissolved amount per volume that the medium holds. Higher therefore signals a readily soluble substance.

(Values after ChEMBL document CHEMBL6109043, “Advances in the selective c-MET kinase inhibitors: Application of fused [5,6]-Bicyclic nitrogen-containing cores for anticancer drug design” (Eur J Med Chem, 2025).)
